In US20250146022A1, “STABILISING THE HUMAN SPINDLE BY KIFC1/HSET” (MAX-PLANCK-GESELLSCHAFT ZUR FOERDERUNG DER WISSENSCHAFTEN …, priority 2021, published 2025):

Columns and labels:
human oocytes = experiment: Live imaging of spindle assembly and chromosome segregation in human oocytes microinjected with KIFC1/HSET (mClover3-HSET); format: cell-based
Procedure: As shown in various Figures herein and specifically referred in Example 2, the bipolar meiotic spindle is assessed or detected by fluorescence microscopy or polarized light microscopy. In practice, the oocyte is not is typically not assessed by fluorescence microscopy, when the oocyte is used for in vitro fertilization at a later stage as this would require sacrificing the oocytes for analysis. The change in probability represents a characteristic of human oocytes when KIFC1/HSET is introduced into the human oocyte. […] Similarly, it is also expected that KIFC1/HSET stabilizes the mitotic spindle in human zygotes. The skilled person is aware of how to determine the duration of spindle pole instability and is provided with further guidance in Example 2 herein. Briefly, the duration of spindle pole instability refers to the duration of excessive spindle pole remodeling after early spindle bipolarization. In the case of human oocytes, the remodeling is largely the widening or fragmentation of spindle poles, which results in apolar or multipolar spindle. The start and end points are determined from the videos based on the first and last time points in which the spindle was not bipolar.
Anaphase onset refers to the time point before chromosome separation was first observed, as defined in the inventors previous study (2). […] Thus, there was a difference of 30.6% relative to the starting percentage of 44%. In other words, the human oocytes in FIG. 8D into which KIFC1/HSET has been introduced have a 1.7 fold (75%/44%) higher probability of aligned chromosomes at anaphase onset in comparison to an oocyte without introduced KIFC1/HSET.
In general, lagging chromosomes during anaphase are known in the art and are a consequence of chromosomes or chromatids not properly separating from each other. […] Lagging chromosomes are therefore a common cause of aneuploidy. […] Specifically, 33.3% of oocytes without introduced KIFC1/HSET had no lagging: chromosomes, while 62.5% of oocytes with introduced KIFC1/HSET had no lagging chromosomes. Thus, there was a difference of 29.5% based on the starting percentage of 33%. In other words, the human oocytes in FIG. 8E into which KIFC1/HSET has been introduced have a 1.9 fold (62.5%/33.3%) higher probability of aligned chromosomes at anaphase onset in comparison to an oocyte without introduced KIFC1/HSET.
To confirm that the lack of KIFC1/HSET is a major contributor to spindle instability in human oocytes, the inventors introduced KIFC1/HSET into human oocytes in FIG. 8. To visualize the dynamics of microtubules and chromosomes using live cell imaging, human oocytes were stained with 5′-SiR-tubulin and SPY555-DNA, respectively. […] The inventors also quantified the frequency of misaligned chromosomes at anaphase onset (FIG. 8D) and lagging chromosomes (FIG. 8E) in human oocytes non-injected and injected with KIFC1/HSET. […] Together, the inventors infer that the introduction of KIFC1/HSET stabilized the meiotic spindle and reduced the risk of aneuploidy in human oocytes.
The use of unfertilized human oocytes in this study was approved by the UK's National Research Ethics Service under the REC reference 11/EE/0346 (IRAS Project ID 84952) and the Ärztekammer Niedersachsen (Ethics Committee of Lower Saxony) under the reference 15/2016. Oocytes were collected from patients who underwent ovarian stimulation for intracytoplasmic sperm injection (ICSI) as part of their assisted reproduction treatment at the Bourn Hall Clinic or Kinderwunschzentrum Göttingen or Fertility Center Berlin. Only oocytes that were immature at the time of ICSI and thus unsuitable for the procedure were used in this study. All patients gave informed consent for their surplus oocyte(s) to be used in this study. Oocytes were cultured as previously described (1). Briefly, within 3-5 h after retrieval from ovaries, oocytes were transferred into G-MOPS (Vitrolife) supplemented with 10% FBS under paraffin oil at 37° C. […]

[1] = tested on: human tripronuclear (3PN) zygotes; experiment: Live imaging of spindle assembly and chromosome segregation in human 3PN zygotes injected with KIFC1; format: cell-based; conditions: for multipolar / bipolar spindle assembly: human 3PN zygotes, FIG. 9, B to D
From the text: Spindles in human fertilized eggs (zygotes) have also been reported to often be multipolar (6, 7, 122). […] The inventors thus tested if the introduction of exogenous KIFC1 increased the fidelity of spindle assembly and chromosome segregation in human zygotes, by using human tripronuclear (3PN) zygotes. Similar to the zygotes in (6, 7, 122), these zygotes frequently assembled multipolar spindles. […] Furthermore, introduction of mClover3-KIFC1 protein increased the frequency of zygotes with aligned chromosomes at anaphase onset from 20% to 57% (FIG. 9E), and the frequency of zygotes without lagging chromosomes during anaphase from 40% to 71% (FIG. 9F). Thus, introducing exogenous KIFC1 increased the efficiency of bipolar spindle assembly and reduced the risk of aneuploidy in human zygotes.
The use of human 3PN zygotes in this study was approved by the Ärztekammer Niedersachsen under the reference Bo/46/2020. Zygotes were collected from patients who underwent assisted reproduction treatment at Kinderwunschzentrum Göttingen and Fertility Center Berlin. All patients gave informed consent for their 3PN zygotes to be used in this study. For zygotes collected at Kinderwunschzentrum Göttingen, zygotes were cultured in G-1 PLUS medium (Vitrolife) under paraffin oil at 37° C. and 5% CO2. For zygotes collected at Fertility Center Berlin, zygotes were vitrified with Cryolock (FUJIFILM Irvine Scientific) using Vit Kit-Freeze (FUJIFILM Irvine Scientific). To maximize the survival and developmental rate of vitrified-thawed zygotes, zygotes were thawed in 1 ml of prewarmed G-MOPS PLUS (Vitrolife) containing 1 M D-(+)-trehalose (Sigma-Aldrich) at 37° C. for 1 min. Zygotes were then transferred to 300 μl of G-MOPS PLUS containing 0.5 M D-(+)-trehalose at room temperature for 3 min, 300 μl of G-MOPS PLUS containing 0.25 M D-(+)-trehalose at room temperature for 5 min, and 300 μl of G-MOPS PLUS at room temperature for 2 min. Recovered zygotes were cultured in G1-PLUS supplemented with 10% FBS under paraffin oil at 37° C. and 5% CO2. Staining and microinjection of human zygotes were performed as described above for human oocytes.

Which results are given for “KIFC1/HSET: Recombinant mClover3-tagged human kinesin-14 KIFC1/HSET protein (SEQ ID NO: 1), expressed in 293 cells, microinjected into human oocytes and zygotes”?
fold higher probability of aligned chromosomes at anaphase onset vs oocyte without introduced KIFC1/HSET (FIG. 8E, lagging chromosomes) (human oocytes; 62.5%/33.3%, FIG. 8E): 1.9 fold; fold higher probability of aligned chromosomes at anaphase onset vs oocyte without introduced KIFC1/HSET (human oocytes; 75%/44%, FIG. 8D): 1.7 fold; difference in oocytes with no lagging chromosomes (human oocytes; based on the starting percentage of 33%): 29.5%; time of early spindle bipolarization after onset of microtubule nucleation (human oocytes; injected human oocytes, non-injected 2.4 h, p=0.7197, FIG. 8B): 2.65 h; duration of spindle pole instability (human oocytes; injected human oocytes, non-injected 10.3 h, p<0.0001, FIG. 8C): 3.4 h; proportion of human oocytes with no lagging chromosome (human oocytes; oocytes with introduced KIFC1/HSET, without 33.3%, FIG. 8E): 62.5%; proportion of human oocytes with aligned chromosomes at anaphase onset (human oocytes; oocytes with introduced KIFC1/HSET, without 44.4%, FIG. 8D): 75%; difference in oocytes with aligned chromosomes at anaphase onset (human oocytes; relative to the starting percentage of 44%): 30.6%; frequency of zygotes with aligned chromosomes at anaphase onset ([1]; KIFC1-injected human 3PN zygotes, non-injected 20%, FIG. 9E): 57%; frequency of zygotes without lagging chromosomes during anaphase ([1]; KIFC1-injected human 3PN zygotes, non-injected 40%, FIG. 9F): 71%; multipolar / bipolar spindle assembly [1]: significantly reduces multipolar spindle assembly and/or promoted bipolar spindle assembly; multipolar / bipolar spindle assembly ([1]; listed as mClover3-KIFC1): significantly reduced multipolar spindle assembly and promoted bipolar spindle assembly
